# Tested on: UACC-62
# Test: Cytotoxicity against human UACC62 cells
# Assay type: functional
# Settings: read-out: LC50 (the source's name)
smiles,measurement,value
CC(C)=CC(=O)N/C=C/C(C)=C/[C@@H](C)[C@H]1C/C(C)=C/C=C/CC[C@H](OC(N)=O)[C@@H](O)/C=C/[C@@H](O)CCC/C=C/C(=O)O1 [PALMEROLIDE A],CC50,18 nM
